According to PMC9823191, “Production, characterization and techno-economic evaluation of Aspergillus fusant L-asparaginase” (AMB Express, 2023):

Tested on: T1, Fusant-06 L-ASNase
T1 construct: native extracellular enzyme from fusant fermentation broth; PEG/citrate ATPS then Sephadex G-100; may be recombined from both parents
Assay: ammonia release (Imada assay); Lineweaver-Burk plot
Type: biochemical
Conditions: L-asparagine 0.005–1.28 mM; 5 µg/mL (0.043 µM) enzyme; optimum conditions (pH and temperature not stated for the kinetics)

Km: 66.7 µM
SMILES: NC(=O)C[C@H](N)C(=O)O [L-asparagine]
